# Measured values: ChEMBL document CHEMBL1140954, “Syntheses and cytotoxicities of the analogues of the taxoid brevifoliol” (Eur J Med Chem, 2008)
# How the values were obtained:
# [1] = tested on: KB; assay: Cytotoxicity against human KB cells after 48 hrs by MTT assay; type: functional, cell-based
# [2] = tested on: MCF7; assay: Cytotoxicity against human MCF7 cells after 48 hrs by MTT assay; type: functional, cell-based; conditions: MCF7, 48 h
# [3] = (§1) Cytotoxicity against human Caco-2 cells after 48 hrs by MTT assay; type: cell-based; conditions: human, Caco-2 cells
# [4] = tested on: Caco-2; assay: as §1; type: cell-based; conditions: Homo sapiens, Caco-2, 48 h
# [5] = tested on: HepG2; assay: Cytotoxicity against human HepG2 cells after 48 hrs by MTT assay; type: functional, cell-based; conditions: HepG2, 48 h
compound,measurement,setting,value
C=C1[C@H]2C[C@]3(C(C)(C)O)C[C@H](OC(=O)[C@H](O)[C@@H](NC(=O)OC(C)(C)C)c4ccccc4)C(C)=C3[C@@H](OC(=O)c3ccccc3)[C@H](OC(C)=O)[C@]2(C)[C@@H](OC(C)=O)C[C@@H]1O,IC50,[1],100 µg/mL
same,IC90,[1],100 µg/mL
same,IC50,[2],48.3 µg/mL
same,IC90,[2],68.3 µg/mL
same,IC90 at 48 h,[3],100 µg/mL
same,IC50,[4],100 µg/mL
same,IC50,[5],78.3 µg/mL
same,IC90,[5],91.6 µg/mL
C=C1[C@@H](OC(=O)[C@H](O)[C@@H](NC(=O)OC(C)(C)C)c2ccccc2)C[C@H](OC(C)=O)[C@]2(C)[C@@H]1C[C@]1(C(C)(C)O)CC(=O)C(C)=C1[C@@H](OC(=O)c1ccccc1)[C@@H]2OC(C)=O,IC50,[1],100 µg/mL
same,IC90,[1],100 µg/mL
same,IC50,[2],8.5 µg/mL
same,IC90,[2],43.3 µg/mL
same,IC90 at 48 h,[3],100 µg/mL
same,IC50,[4],100 µg/mL
same,IC50,[5],0.065 µg/mL
same,IC90,[5],5.33 µg/mL
C=C1[C@@H](OC(=O)[C@H](O)[C@@H](NC(=O)OC(C)(C)C)c2ccccc2)C[C@H](OC(C)=O)[C@]2(C)[C@@H]1C[C@]1(C(C)(C)O)C[C@H](O)C(C)=C1[C@@H](OC(=O)c1ccccc1)[C@@H]2OC(C)=O,IC50,[1],100 µg/mL
same,IC90,[1],100 µg/mL
same,IC50,[2],33.3 µg/mL
same,IC90,[2],55 µg/mL
same,IC90 at 48 h,[3],100 µg/mL
same,IC50,[4],100 µg/mL
same,IC50,[5],100 µg/mL
same,IC90,[5],100 µg/mL
C=C1[C@@H](OC(=O)[C@H](O)[C@@H](NC(=O)OC(C)(C)C)c2ccccc2)C[C@H](OC(C)=O)[C@@]2(C)[C@@H](OC(C)=O)[C@H](OC(=O)c3ccccc3)C3=C(C)C(=O)C[C@@]3(C(C)(C)O)[C@@H](OC(C)=O)[C@H]12,IC50,[1],0.105 µg/mL
same,IC90,[1],5.33 µg/mL
same,IC50,[2],100 µg/mL
same,IC90,[2],100 µg/mL
same,IC90 at 48 h,[3],100 µg/mL
same,IC50,[4],100 µg/mL
same,IC50,[5],100 µg/mL
same,IC90,[5],100 µg/mL
C=C1[C@@H](OC(=O)[C@H](O)[C@@H](NC(=O)OC(C)(C)C)c2ccccc2)C[C@H](OC(C)=O)[C@]2(C)[C@@H]1C[C@]1(C(C)(C)O)C[C@H](OC(=O)C(O)C(NC(=O)OC(C)(C)C)c3ccccc3)C(C)=C1[C@@H](OC(=O)c1ccccc1)[C@@H]2OC(C)=O (stereo partly specified),IC50,[1],2.73 µg/mL
same,IC90,[1],33.3 µg/mL
same,IC50,[2],100 µg/mL
same,IC90,[2],100 µg/mL
same,IC90 at 48 h,[3],100 µg/mL
same,IC50,[4],100 µg/mL
same,IC50,[5],96.6 µg/mL
same,IC90,[5],100 µg/mL
C=C1[C@H]2C[C@]3(C(C)(C)O)CC(=O)C(C)=C3[C@@H](OC(=O)c3ccccc3)[C@H](OC(C)=O)[C@]2(C)[C@@H](OC(C)=O)C[C@@H]1O,IC50,[1],0.0078 µg/mL
same,IC90,[1],1.13 µg/mL
same,IC50,[2],5.33 µg/mL
same,IC90,[2],22.6 µg/mL
same,IC90 at 48 h,[3],21 µg/mL
same,IC50,[4],0.008 µg/mL
same,IC50,[5],100 µg/mL
same,IC90,[5],100 µg/mL
C=C1[C@@H](O)C[C@H](OC(C)=O)[C@@]2(C)[C@@H](OC(C)=O)[C@H](OC(=O)c3ccccc3)C3=C(C)C(=O)C[C@@]3(C(C)(C)O)[C@@H](OC(C)=O)[C@H]12 [13-OXO-TAXCHININ A],IC50,[1],100 µg/mL
same,IC90,[1],100 µg/mL
same,IC50,[2],100 µg/mL
same,IC90,[2],100 µg/mL
same,IC90 at 48 h,[3],100 µg/mL
same,IC50,[4],100 µg/mL
same,IC50,[5],96.6 µg/mL
same,IC90,[5],100 µg/mL
C=C1[C@H]2C[C@]3(C(C)(C)O)C[C@H](O)C(C)=C3[C@@H](OC(=O)c3ccccc3)[C@H](OC(C)=O)[C@]2(C)[C@@H](OC(C)=O)C[C@@H]1O [BREVIFOLIOL],IC50,[1],0.0031 µg/mL
same,IC90,[1],0.6 µg/mL
same,IC50,[2],0.86 µg/mL
same,IC90,[2],6.16 µg/mL
same,IC90 at 48 h,[3],1.32 µg/mL
same,IC50,[4],0.0025 µg/mL
same,IC50,[5],0.055 µg/mL
same,IC90,[5],1.13 µg/mL
CC(=O)O[C@H]1C(=O)[C@@]2(C)[C@H]([C@H](OC(=O)c3ccccc3)[C@]3(O)C[C@H](OC(=O)[C@H](O)[C@@H](NC(=O)c4ccccc4)c4ccccc4)C(C)=C1C3(C)C)[C@]1(OC(C)=O)CO[C@@H]1C[C@@H]2O [PACLITAXEL],IC90,[1],0.048 µg/mL
same,IC90,[2],0.86 µg/mL
same,IC90 at 48 h,[3],0.065 µg/mL
same,IC90,[5],1.13 µg/mL
C=C1[C@@H](O)C[C@H](OC(C)=O)[C@@]2(C)[C@@H](OC(C)=O)[C@H](OC(=O)c3ccccc3)C3=C(C)[C@@H](O)C[C@@]3(C(C)(C)O)[C@@H](OC(C)=O)[C@H]12 [TAXCHININ A],IC50,[1],0.316 µg/mL
same,IC90,[1],7.5 µg/mL
same,IC50,[2],58.3 µg/mL
same,IC90,[2],91.6 µg/mL
same,IC90 at 48 h,[3],21 µg/mL
same,IC50,[4],6.16 µg/mL
same,IC50,[5],96.6 µg/mL
same,IC90,[5],100 µg/mL
